Earlier results on seven compounds are cited in article PMC7395068, “The evolution of strategies to minimise the risk of human drug-induced liver injury (DILI) in drug discovery and development” (Archives of Toxicology, 2020).

Data set [1] concerns HepG2 cells. Particulars: cited from earlier work.
In the next data set the test system is human hepatocytes. As to conditions: In vitro Assay; ref Xu 2008; cited from earlier work.
In data set [2] the test system is isolated mouse liver mitochondria. Particulars: In vitro Assay; ref Porceddu 2012; cited from earlier work.
Data set [3] concerns HepG2 cells. As to conditions: cited from earlier work. The source holds these as a separate data set.
The subject of another data set is PHH spheroids. Particulars: cited from earlier work.
For data set [4] the following is noted: cited from earlier work.
For data set [5], the system named is HepG2 cells. Particulars: In vitro Assay; ref Persson 2013; cited from earlier work.
The conditions of data set [6]: cited from earlier work. The source holds these as a separate data set.
Data set [7] deals with THLE or HepG2 cells, isolated mitochondria, BSEP. Particulars: cited from earlier work.
Setting [8] is: In vitro Assay, ref Tolosa 2012.
The mark [9] stands for this setting: In vitro Assay, ref O'Brien 2006.

Read-outs that look alike come from different tables or passages of the source.

Consider `CC[C@H](C)C(=O)O[C@H]1C[C@@H](C)C=C2C=C[C@H](C)[C@H](CC[C@@H]3C[C@@H](O)CC(=O)O3)[C@H]21` [lovastatin], for which the figures for the “Structural based (HCI)” value in the data set with HepG2 cells [1] (setting [8]), in the data set with human hepatocytes and in the data set with HepG2 cells [3] (setting [9]) were “+VE”, “-VE” and “-VE”, respectively. The “in vitro data EC2<=1x Cmax” value in data set [2] was “-VE”. In addition, the “in vitro data EC20<=2uM” value in [2] is on record as “+VE”.

In the case of aflatoxin b1, the “Structural based (HCI)” value in the data set with HepG2 cells [1] was “+VE”. The “hLiMTs ATP <20 x Cmax” value in the data set on PHH spheroids was “+VE (key: +VE: IC20 < 20 × Cmax.tot cut-off)”. Also, in data set [4] (in vivo), the “In vivo DILI” value is listed as “+VE”.

With `CC1=CC(=O)c2ccccc2C1=O` [menadione], the results for the “Structural based (HCI)” value in the data set with HepG2 cells [1] (setting [8]), with HepG2 cells [5] and in the data set with HepG2 cells [3] (setting [9]) were “+VE”, “+VE” and “+VE (lowest HCI endpoint IC50 (or in the absence of dose–response < 100 µM) < 30 × total human plasma exposure levels (Cmax.tot))”, respectively. Besides, the Cluser analysis entry with HepG2 cells [5] is recorded as “+VE”. Moreover, the “In vivo DILI” value in [4] (ref O'Brien 2006) is “-VE”; in data set [4] (ref Persson 2013), “+VE”; in [4] (ref Tolosa 2012), “+VE”.

As for `CCN(CC)CCCC(C)Nc1ccnc2cc(Cl)ccc12` (stereo not drawn) [chloroquine], the “DILI +VE (5-8), DILI -VE (-4)” value in data set [6] (in vivo) is on record as “+VE”. In [6] (in vivo), the DILI severity category entry is “vLess-DILI-Concern”. For the same compound, the “Structural based (HCI)” value in the data set with HepG2 cells [1] and with HepG2 cells [3] was “+VE” throughout. Further, the “Ro2 Hybrid HRM Score” value in [7] is “+VE”.

Take `CNCCCC12CCC(c3ccccc31)c1ccccc12` [maprotiline]: in data set [6] (ref Chen 2016), the “DILI +VE (5-8), DILI -VE (-4)” value is on record as “-VE”. Moreover, in data set [6] (ref Chen 2016), the DILI severity category entry is “Ambiguous DILI-concern”. Also, the figures for the “Structural based (HCI)” value in the data set on HepG2 cells [1] (setting [8]) and in the data set with human hepatocytes were “+VE” and “-VE”, respectively. For the same compound, the “Partition Hybrid HRM Score” value in data set [7] (In vitro Assay, ref Aleo 2019) was “+VE”. For the same compound, the “Ro2 Hybrid HRM Score” value in data set [7] (In vitro Assay, ref Aleo 2019) is recorded as “+VE”. Further, the “In vivo DILI” value is on record as “-VE” in data set [4] ([…]), “+VE” in [4] (ref Tolosa 2012) and “-VE” in [4] (ref Xu 2008).

Take `C[S+](C)[O-]` [dimethyl dulfoxide]: the “Structural based (HCI)” value in the data set with HepG2 cells [1] (setting [8]) and in the data set with HepG2 cells [5] was “-VE” each time. Besides, in the data set with HepG2 cells [5], the Cluser analysis entry was “-VE”. In addition, the “In vivo DILI” value in data set [4] (ref Persson 2013) and in data set [4] (ref Tolosa 2012) was “-VE” each time.

gentamycin: the figures for the “Structural based (HCI)” value in the data set with HepG2 cells [1] (setting [8]) and in the data set with HepG2 cells [3] (setting [9]) were “-VE” and “+VE”, respectively. Moreover, the “in vitro data EC2<=1x Cmax” value in data set [2] is listed as “+VE”. The “in vitro data EC20<=2uM” value in [2] is “+VE”. Also, the “In vivo DILI” value in data set [4] ([…]) was “-VE”; in data set [4] (ref O'Brien 2006), “-VE”; in [4] (ref Porceddu 2012), “+VE”; in data set [4] (ref Tolosa 2012), “-VE”.
